This is an account of results in patent publication US10168338B2, “Methods of identifying modulators of sestrin-gator-2 interaction for modulating mTORC1 activity” (Whitehead Institute for Biomedical Research, priority 2014, dated 2019).

Assay [1] addresses T1, GATOR2-Sestrin2 interaction (Homo sapiens, UniProt P58004).
T1 construct: To isolate the FLAG-WDR24/endogenous-Sestrin2 complex; endogenous in cells; host or cells: HEK-293T cells stably expressing FLAG-WDR24; Sestrin2 and the other GATOR2 subunits are endogenous
T1 sequence (P58004 1-480): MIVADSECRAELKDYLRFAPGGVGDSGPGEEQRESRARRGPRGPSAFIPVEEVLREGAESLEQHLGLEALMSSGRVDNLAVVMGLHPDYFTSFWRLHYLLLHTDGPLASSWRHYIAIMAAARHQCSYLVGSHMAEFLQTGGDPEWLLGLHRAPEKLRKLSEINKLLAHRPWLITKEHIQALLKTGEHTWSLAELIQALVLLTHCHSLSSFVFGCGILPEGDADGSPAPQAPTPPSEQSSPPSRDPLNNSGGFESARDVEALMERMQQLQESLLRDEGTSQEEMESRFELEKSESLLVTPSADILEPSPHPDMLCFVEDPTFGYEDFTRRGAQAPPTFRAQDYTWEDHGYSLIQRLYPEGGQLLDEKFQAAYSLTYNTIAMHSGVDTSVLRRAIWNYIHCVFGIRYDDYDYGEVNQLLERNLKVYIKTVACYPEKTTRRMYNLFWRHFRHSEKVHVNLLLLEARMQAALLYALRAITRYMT
Kind of assay: Sestrin2-GATOR2 interaction in HEK-293T cells after starvation/restimulation (co-immunoprecipitation). In kind it is cell-based. The procedure: (§1) In order to determine the effect of amino acids on the GATOR2-Sestrin interaction, transfected cells were incubated in amino acid free RPMI for 50 minutes and then stimulated with amino acids for 10 minutes. For glucose starvation, cells were incubated in RPMI media lacking glucose but containing amino acids and dialyzed serum for 50 minutes, followed by a 10 minute restimulation with 5 mM D-Glucose. For insulin deprivation, cells were incubated in RPMI without serum for 50 minutes and restimulated with 1 μg/ml insulin for 10 minutes. Finally, when Torin1 or Rapamycin was used, cells were incubated with 250 nM of each throughout the starvation and restimulation period.
HEK-293T cells stably expressing FLAG-WDR24 or the control protein FLAG-metap2 (as described in Example 1) were starved for leucine, arginine, or all amino acids for 50 minutes. In some samples, cells were re-stimulated with leucine, arginine, or all amino acids for 10 minutes and then FLAG immunoprecipitates prepared from cell lysates. Immunoprecipitates and lysates were analyzed by immunoblotting for indicated proteins. Removal of either leucine or arginine from the cell media inhibited mTORC1 signaling, as indicated by S6K1 phosphorylation, to similar extents. Strikingly, however, only leucine starvation caused Sestrin2 to bind to GATOR2 inducing the interaction as effectively as complete amino acid starvation (FIG. 9A). […] Leucine starvation and stimulation also strongly regulated the interaction of endogenous Sestrin1, but not endogenous Sestrin3, with GATOR2 (Figure not shown).

For assay [2], the target named is T2, Sestrin-GATOR2 interaction (Homo sapiens, UniProt P58004).
T2 construct: To isolate the FLAG-WDR24/endogenous-Sestrin2 complex; endogenous in cells; host or cells: HEK-293T cells stably expressing FLAG-WDR24; Sestrin2 and the other GATOR2 subunits are endogenous
T2 sequence (P58004 1-480): T1 sequence (P58004 1-480)
The assay can be described thus: Effect of specific amino acids on Sestrin-GATOR2 interaction (FLAG-WDR24 immunoprecipitation, immunoblot). The assay is classed as cell-based. The note with it: HEK-293T stably expressing FLAG-WDR24; starvation/restimulation, pre- or post-lysis addition, washes of immunoprecipitates. Here is the method:
In order to further explore if specific amino acid levels affected the Sestrin-GATOR2 interaction, HEK-293T cells stably expressing the FLAG-tagged GATOR2 component WDR24 (and FLAG-tagged metap2 as a control) were starved of either all amino acids (ALL); only leucine, arginine, and lysine (LRK); only leucine (L); only arginine (R); or only lysine (K) for 50 minutes, or starved for 50 minutes and restimulated for 10 minutes with the indicated amino acids.
HEK-293T cells stably expressing the FLAG-tagged GATOR2 component WDR24 were starved of all amino acids for 50 minutes. Individual amino acids were added pre-lysis to the cell culture media or post-lysis to cell lysates prior to FLAG immunoprecipitation.
Finally, HEK-293T cells stably expressing the FLAG-tagged GATOR2 component WDR24 were starved of all amino acids for 50 minutes. Immunoprecipitates were subjected to washes containing the indicated amounts of leucine or arginine and analyzed along with cell lysates by immunoblotting for the indicated proteins as shown in FIG. 8C.
(In general: A western blot detects proteins with antibodies after separation by electrophoresis.)

The target in assay [3] is T3, Sestrin2 (Homo sapiens, UniProt P58004).
T3 construct: expressed in transfected cells; host or cells: HEK-293T, transient transfection of a pRK5-based cDNA plasmid, anti-FLAG immunoprecipitation
T3 sequence (P58004 1-480): T1 sequence (P58004 1-480)
Kind of assay: [3H]-labeled amino acid binding to FLAG-Sestrin2 immunoprecipitated from HEK-293T cells. The settings on record: for Ki: 10 μM 3H-leucine, three experiments, read-out: inhibitory constant (Ki) for competing leucine binding to Sestrin2; for affinity for Sestrin2, times lower than the affinity of leucine: relative to leucine Kd. Here is the method:
Four million HEK-293T cells were plated in a 15 cm plate four days prior to the experiment. Each plate yielded the protein for one sample. Forty-eight hours after plating, the cells were transfected via the polyethylenimine method (O. Boussif et al., PNAS (USA), 92:7297-7301 (1995)) with the pRK5-based cDNA expression plasmids indicated in the figures in the following amounts: 5 μgFLAG-Sestrin2; 12 μg of the negative control Rap2A; 5 μg WDR24; 2 μg WDR24 with 4 μg each of HA-Seh1L, HA-Sec13, HA-Mios, and HA-WDR59; 12 […] (CG11299-PD); 12 μgFLAG-Sestrin1.1; 12 μg FLAG-Sestrin1.2; 12 μg FLAG-Sestrin3; 12 μg FLAG-Sestrin2 mutants (L261A, E451A, S190A) and up to 20 μg total DNA with empty-PRK5. Forty-eight hours after transfection cells were lysed as described in Example 1. If multiple samples of the same type were represented in the experiment, the cell lysates were combined, mixed, and evenly distributed amongst the relevant tubes, to ensure equal protein amounts across samples of the same type.
Anti-FLAG immunoprecipitates were prepared as previously described, with the exception that, prior to incubation with lysates, the beads were blocked by rotating in 1 μg/μl bovine serum albumin (BSA) for 20 minutes at 4° C. and subsequently washed twice in lysis buffer. Thirty μl of the 50/50 slurry of beads in lysis buffer was added to each of the clarified cell lysates and incubated as previously described in Example 1.
For the binding assays, two tubes at a time were washed as previously indicated for immunoprecipitations. All the liquid was subsequently aspirated and a 15 μl aliquot of proteins bound to the beads was incubated for one hour on ice in cytosolic buffer (0.1% Triton, 40 mM HEPES pH 7.4, 10 mM NaCl, 150 mM KCl, 2.5 mM MgCl2) with the appropriate amount of [^3H]-labeled amino acids and unlabeled amino acids. Tubes were flicked every five minutes. At the end of one hour, the beads were briefly spun down, aspirated dry, and rapidly washed three times with binding wash buffer (0.1% Triton, 40 mM HEPES pH 7.4, 150 mM NaCl). The beads were aspirated dry again and resuspended in 85 μl of binding wash buffer. With a cut tip, each sample was mixed well and three 10 μl aliquots were separately quantified using a TriCarb® scintillation counter (PerkinElmer). This process was repeated in pairs for each sample, to ensure similar incubation and wash times for all samples analyzed across different experiments.
Amino acid affinities to Sestrin2 were determined by first normalizing the bound [^3H]-labeled amino acid concentrations across three separate binding assays performed with varying amounts of unlabeled amino acid competition. These values were plotted and fit to a hyperbolic equation ([…]) to estimate the IC50 value. Kd or Ki values were derived from the IC50 value using the equation: Kd or Ki=IC50/(1+([[^3H]Leucine])/Kd).

Assay [4] has as its system mTORC1. Kind of assay: mTORC1 signaling in HEK-293T cells (S6K1 phosphorylation immunoblot). In kind it is cell-based, human. The settings on record: v-ATPase inhibition. Here is the method: Immunoprecipitated proteins were denatured by the addition of 50 μl of sample buffer and boiling for 5 minutes as described (Kim et al., 2002), resolved by 8%-16% SDS-PAGE, and analyzed by immunoblotting using the appropriate antibody (antibodies to phospho-T389 S6K1, S6K1, Sestrin2, mTOR, Mios and FLAG all obtained from Cell Signaling Technology; antibodies to WDR24 and WDR59 were generously provided by Jianxin Xie at Cell Signaling Technology).
as §1

Assay [5] has as its target T4, Sestrin2-GATOR2 complex (Homo sapiens, UniProt P58004).
T4 construct: To isolate the FLAG-WDR24/endogenous-Sestrin2 complex; endogenous in cells; host or cells: HEK-293T cells stably expressing FLAG-WDR24; Sestrin2 and the other GATOR2 subunits are endogenous
T4 sequence (P58004 1-480): T1 sequence (P58004 1-480)
Kind of assay: Amino acids added directly to immunopurified Sestrin2-GATOR2 complexes (immunoblot). The note with it: for effect on the Sestrin2-GATOR2 interaction in vitro: 300 μM each, added directly to FLAG immunoprecipitates; for concentration acting on Sestrin2-GATOR2 complex, fold greater than leucine: added to purified complexes, relative to leucine. The assay is classed as binding. Here is the method:
We next tested if leucine acts directly on the Sestrin2-GATOR2 complex.
HEK-293T cells stably expressing FLAG-WDR24 were starved for all amino acids for 50 minutes, lysed and subjected to anti-FLAG immunoprecipitation as described previously. The GATOR2-Sestrin2 complexes immobilized on the agarose beads were washed twice in lysis buffer with 500 mM NaCl, as previously described, and then incubated for 10 minutes in 1 mL of cytosolic buffer with the indicated concentrations of individual amino acids. The amount of GATOR2 and Sestrin2 that remained bound was assayed by SDS-PAGE and immunoblotting as described previously.

Turning to `CCC(=O)N1CCN(c2ccc(-n3c(=O)ccc4cnc5ccc(-c6cnc7ccccc7c6)cc5c43)cc2C(F)(F)F)CC1` [Torin1], the “effect of pretreatment on the amino acid-induced decrease in the GATOR2-Sestrin2 interaction” value in assay [1] (250 nM throughout starvation and restimulation) is “did not prevent the amino acid-induced decrease in the GATOR2-Sestrin2 interaction”.
For the molecule `N=C(N)NCCC[C@H](N)C(=O)O` [arginine], the “disruption of the Sestrin-GATOR2 interaction” value in assay [2] is given as “but not arginine or lysine, disrupts the Sestrin-GATOR2 interaction”. Further, the “binding of radiolabeled amino acid to Sestrin2” value in assay [3] (FLAG-Sestrin2 from HEK-293T, competed by excess unlabeled leucine) is “did not bind”.
Consider `C/C=C/[C@H]1O[C@@](O)([C@@H](C)[C@H](O)[C@H](C)[C@H]2OC(=O)/C(OC)=C/C(C)=C/[C@@H](C)[C@@H](O)[C@@H](CC)[C@@H](O)[C@H](C)C/C(C)=C/C=C/[C@@H]2OC)C[C@@H](O[C@H]2C[C@@H](O)[C@H](OC(N)=O)[C@@H](C)O2)[C@@H]1C` [concanamycin A], for which the “effect on mTORC1 signaling” value in assay [4] is reported as “decreased mTORC1 signaling”. Further, the “effect on the interaction between Sestrin2 and GATOR2” value in assay [1] (in the absence of amino acids) is “reduced the interaction between Sestrin2 and GATOR2”.
Usually Ki stands for the equilibrium dissociation constant of an inhibitor or competing ligand from its target. Regarding `CC[C@H](C)[C@H](N)C(=O)O` [isoleucine], in assay [5], the “effect on the Sestrin2-GATOR2 interaction in vitro” value (“effect … in vitro” below) is “had any effect on the Sestrin2-GATOR2 interaction” and the “concentration acting on Sestrin2-GATOR2 complex, fold greater than leucine” value was about 25 fold. In addition, in assay [3], the Ki came out at 616 ± 273 µM and the “affinity for Sestrin2, times lower than the affinity of leucine” value was about 30 times.
With `NCCCC[C@H](N)C(=O)O` [lysine], in assay [2], the “disruption of the Sestrin-GATOR2 interaction” value is reported as “but not arginine or lysine, disrupts the Sestrin-GATOR2 interaction”.
As for `CSCC[C@H](N)C(=O)O` [methionine], in assay [5], the “effect … in vitro” value is “had any effect on the Sestrin2-GATOR2 interaction” and the “concentration acting on Sestrin2-GATOR2 complex, fold greater than leucine” value was “approximately 10 fold”. In assay [3], the inhibitory constant (Ki) was 354 ± 118 µM and the “affinity for Sestrin2, times lower than the affinity of leucine” value is reported as “approximately 18 times”.
For the molecule `CC(C)[C@H](N)C(=O)O` [valine], in assay [5], the “effect … in vitro” value is on record as “had any effect on the Sestrin2-GATOR2 interaction”.
Regarding insulin, the “regulation of the Sestrin2-GATOR2 interaction by insulin treatment” value in assay [1] (serum-free 50 minutes, 1 μg/ml insulin 10 minutes) is recorded as “did not regulate the Sestrin2-GATOR2 interaction”.
